Here are results for 2 compounds from patent US12653803B2, “TREM2 agonists for the stimulation of microglia and methods of identification” (THE TRANSLATIONAL GENOMICS RESEARCH INSTITUTE, priority 2017, dated 2026).

“Also recorded” adds a separate entry of the source.

Assay [1] concerns the target T1, TREM2/TYROBP (Homo sapiens, UniProt Q9NZC2).
T1 construct: stably co-expressing full-length TREM2, full-length TYROBP, and a reporter (e.g., firefly luciferase) driven by NFAT-response elements; expressed in transfected cells; host or cells: BW5147.3 mouse T-lymphocyte cell line, lentiviral transduction (pTYF vectors)
Description: TREM2/TYROBP/NFAT-Luc luciferase reporter cell line screen (primary screen). As to conditions: for stimulation of reporter activity in the TREM2 screening cell line: TREM2/TYROBP/NFAT-Luc cells, positive controls: sphingomyelin at increasing concentrations or 120 μg/mL, PMA (1.5 ng/mL)/Ionomycin (375 nM). The assay is classed as cell-based. From the text:
(§1) Cell-based reporter assays were developed for identifying TREM2 agonists. A mouse T-lymphocyte cell line, BW5147.3, stably co-expressing full-length TREM2, full-length TYROBP, and a reporter (e.g., firefly luciferase) driven by NFAT-response elements, was established (FIG. 2). The parental BW5147.3 cells have no detectable expression of TREM2 or TYROBP (FIG. 4B) and can be used as a counter screen cell-line to identify false positive compounds that stimulate reporter expression independent of TREM2 and TYROBP. BW5147.3 lymphocytes play a central role in the immune system and have high viability (99-100%) in culture.
TREM2 and TYROBP geneArt double-stranded cDNA strings were synthesized (Life Technologies, Carlsbad, CA) and subcloned into pTYF lentiviral vectors to generate a pLenti expression clone. HEK293HT cells were next transfected using Superfect (Qiagen, Venlo, Netherlands), and viral particles were collected and concentrated. Stable expression of TREM2, TYROBP, and the Cignal Lenti NFAT Reporter (Luc) (Qiagen, Venlo, Netherlands) in BW5147.3 cells was accomplished by transduction in opti-MEM media (Life Technologies, Carlsbad, CA) containing 6 μg/ml Polybrene (Sigma-Aldrich, St. Louis, MO). […]
TREM2/TYROBP-NFAT-Luc cell line for HTS was optimized by testing TREM2-stimulated Luc-reporting as a function of growth medium, agonist concentration, induction time, assay duration, and cell density. […] Firefly luciferase levels were measured by chemiluminescence (Bright-Glo™, Promega, WI). […] The effect of reported TREM2 agonists to be served as positive controls were measured (FIG. 5), and the specific stimulation of our reporter through TREM2 by known ligand sphingomyelin was confirmed (FIG. 5).
The primary screening assay was conducted with a concentration of 5 μM for each of the 2,400 compounds (final 0.05% or 0.1% DMSO (v/v)) with two replicate screens with internal replicates. […] Subsequently, Luciferase activity was measured using Bright-Glo™ (Promega, Madison, WI).
(In general: Reporter assays use an easily measured gene product as a stand-in for the process of interest.)

The subject of assay [2] is NFAT reporter. Description: BW-NFAT-Luc counter screen (NFAT reporter only, no TREM2/TYROBP). Format: cell-based, mouse. As to conditions: for stimulation of the NFAT-Luc reporter-only counter screen cell line: NFAT-Luc cells without TREM2/TYROBP, sphingomyelin (120 μg/mL in counter screen).
Excerpt: as §1
A counter screen cell line only expressing the Cignal Lenti NFAT Reporter (luc) was also created in parallel to the reporter (BW-NFAT-Luc cell line). The BW-NFAT-Luc cell line has the same MOI as the TREM2/TYROBP-NFAT-Luc cell line (MOI=20) but without expression of TREM2 or TYROBP.
Transmembrane signaling via TREM2 is accomplished through an ITAM-bearing trans-membrane adaptor protein, TYROBP or DAP12. TREM2 activation leads to the induction of transcription factor NFAT. Activation of TREM2 by ligands leads to the phosphorylation of TYROBP, the activation of the reporter, and quantitative production of luciferase. Previous studies using TREM2/TYROBP/NFAT reporter cell-lines have confirmed the stimulation of NFAT transcription following TREM2 activation. Compounds that directly stimulate NFAT signaling (stimulate luciferase activity in the BW-NFAT-Luc cell line) are eliminated as false positive. Thus, the counter screen with BW-NFAT-Luc cell line eliminates the false positive hits and confirms hits from TREM2/TYROBP cell lines screened.
To eliminate the false positive hits from the primary screen that might directly stimulate NFAT signaling, a counter screen was performed with the initial 27 compounds using the BW-NFAT-Luc cell line alone. […] The primary screen with the TREM2/TYROBP Luciferase reporter cell line identified Tyrphostin AG 538 as a positive hit with a relative luminescence of 16.08 (FIG. 6A). […]
(In general: A counterscreen serves to expose hits that act by an unwanted route or on another target.)

T1 sequence (Q9NZC2 19-230, species assumed): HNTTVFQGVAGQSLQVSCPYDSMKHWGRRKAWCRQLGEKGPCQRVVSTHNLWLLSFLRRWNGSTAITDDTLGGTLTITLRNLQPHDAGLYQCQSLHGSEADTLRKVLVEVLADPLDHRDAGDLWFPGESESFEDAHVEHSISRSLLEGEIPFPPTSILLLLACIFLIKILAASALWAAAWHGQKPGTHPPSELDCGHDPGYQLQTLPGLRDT
T1 sequence (O43914 22-113 partner, species assumed): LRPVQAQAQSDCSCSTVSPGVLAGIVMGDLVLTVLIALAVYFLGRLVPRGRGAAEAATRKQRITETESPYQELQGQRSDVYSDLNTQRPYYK

As to `N#C/C(=C\c1ccc(O)c(O)c1)C(=O)c1ccc(O)c(O)c1` [Tyrphostin AG 538], the relative luminescence in assay [1] (primary screen, 5 μM, duplicates, 8 h treatment, TREM2/TYROBP/NFAT-Luc reporter cell line, relative to DMSO vehicle) worked out at 16.08. Further, in assay [2] (NFAT-Luc reporter cell line, 1.5, 3, 6 and 12.5 μM), the “direct stimulation of the NFAT reporter in the counter screen” value is listed as “did not stimulate the NFAT reporter directly”.

On to Sphingomyelin, for which the “stimulation of reporter activity in the TREM2 screening cell line” value was “stimulates; also recorded: similarly positive results” in assay [1] and “induce reporter activity” in assay [1] (listed as sphingomyelin). In addition, the “stimulation of the NFAT-Luc reporter-only counter screen cell line” value in assay [2] is listed as “did not show direct stimulation of the NFAT reporter”; in assay [2] (listed as SM), “did not show any activity”.
